Measurements published in patent US20140094465A1, “Compounds as S-Nitrosoglutathione Reductase Inhibitors” (N30 PHARMACEUTICALS, INC., priority 2011, published 2014).

target: T1, S-nitrosoglutathione reductase (GSNOR) (Homo sapiens, UniProt P11766); experiment: GSNOR assay (inhibition of GSNOR activity, NADH absorbance at 340 nm); format: biochemical; conditions: GSNOR inhibitor activity, Tables 1-6; read-out: IC50 range
T1 construct: made in house; host or cells: E. coli
In short: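 Recombinant GSNOR purified from E. coli, tag removed. Final conditions: 100 mM NaPO4 pH 7.4, 0.240 mM GSNO, 0.300 mM NADH, 0.5 μg/mL enzyme, 1% DMSO; NADH loss followed as 340 nm absorbance change over 3 min at 25 °C. Compounds 100–0.003 μM, triplicate; IC50 by curve analysis.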

T1 sequence (P11766 whole entry): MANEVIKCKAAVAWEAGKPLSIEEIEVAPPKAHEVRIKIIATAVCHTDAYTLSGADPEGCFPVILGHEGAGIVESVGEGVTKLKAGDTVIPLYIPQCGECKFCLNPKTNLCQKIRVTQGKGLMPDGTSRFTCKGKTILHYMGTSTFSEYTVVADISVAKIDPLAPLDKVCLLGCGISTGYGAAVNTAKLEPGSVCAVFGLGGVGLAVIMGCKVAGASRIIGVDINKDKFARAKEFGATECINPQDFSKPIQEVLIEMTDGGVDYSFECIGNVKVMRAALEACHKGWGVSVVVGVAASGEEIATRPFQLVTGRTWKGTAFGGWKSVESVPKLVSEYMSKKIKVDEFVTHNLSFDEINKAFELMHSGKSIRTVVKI

| Compound | IC50 [nM] |
| --- | --- |
| O=C(O)c1ccc(Oc2c(C(F)(F)F)oc3cc(O)ccc3c2=S)cc1 [Compound V-4, 4-((7-hydroxy-4-thioxo-2-(trifluoromethyl)-4H-chromen-3-yl)oxy)benzoic acid] | 100 to 1000 |
| O=C(O)c1ccc(CC(=O)c2ccc(O)cc2)cc1 [VI-11, 4-(2-(4-hydroxyphenyl)-2-oxoethyl)benzoic acid] | 100 to 1000 |
| O=C(O)[C@H]1CC[C@@H](c2nc3ccc(O)cc3cc2C(F)(F)F)CC1 [Compound I-44] | 1000 to 10000 |
| COc1cc(C(=O)O)ccc1-c1ccc2cc(O)ccc2n1 [Compound I-14] | < 100 |
| O=C(O)c1ccc(-c2ccc3cc(O)ccc3[n+]2[O-])c(Cl)c1 [Compound I-50, 2-(4-carboxy-2-chlorophenyl)-6-hydroxyquinoline 1-oxide] | 100 to 1000 |
| O=C(O)c1ccc(COc2cc(F)c(O)cc2F)c(F)c1 [VI-22, 4-((2,5-difluoro-4-hydroxyphenoxy)methyl)-3-fluorobenzoic acid] | 100 to 1000 |
| O=C(O)c1ccc(-c2c(C(F)(F)F)oc3cc(O)ccc3c2=O)cc1Cl [IV-18] | < 100 |
| O=c1c(-c2ccc(-c3nnn[nH]3)c(Cl)c2)c(C(F)(F)F)oc2cc(O)ccc12 [IV-42] | < 100 |

Results, then the molecule that gave them:

| IC50 [nM] | Compound |
| --- | --- |
| < 100 | O=C(O)c1ccc(-c2ccc3cc(O)ccc3c2F)cc1 [III-26, 4-(1-fluoro-6-hydroxynaphthalen-2-yl)benzoic acid] |
| < 100 | Cc1cc2cc(O)ccc2cc1-c1ccc(C(=O)O)cc1 [III-27, 4-(6-hydroxy-3-methylnaphthalen-2-yl)benzoic acid] |
| < 100 | COc1cc(C(=O)O)ccc1-c1ccc2cc(O)ccc2c1 [III-3] |

same assay, conditions: Table 7; GSNOR inhibition, IC50 range class a/b/c; read-out: IC50

| IC50 [nM] | Compound |
| --- | --- |
| 100 to 1000 | O=C(O)c1ccc(-c2csc(-c3ccc(O)c(F)c3)n2)cc1 [VII-6, 4-(2-(3-fluoro-4-hydroxyphenyl)thiazol-4-yl)benzoic acid] |
| 100 to 1000 | O=C(O)c1cccc(-c2csc(-c3ccc(O)c(F)c3)n2)c1 [VII-5, 3-(2-(3-fluoro-4-hydroxyphenyl)thiazol-4-yl)benzoic acid] |
| < 100 | CCOCCCn1c(-c2ccc(O)cc2)ccc1-c1ccc(C(=O)O)cc1 [VII-36, 4-(1-(3-ethoxypropyl)-5-(4-hydroxyphenyl)-1H-pyrrol-2-yl)benzoic acid] |
